Measurements reported in the NIST ThermoML archive (doi:10.1016/j.jct.2006.08.007).
Numbers after ± are expanded uncertainties.

Assay: xn = mol fraction of the nth substance listed
Details: 279.15 K, 101 kPa, Liquid

SMILES: C1COCCO1 [1,4-dioxane] + O
- mass density (x1 = 0.018): 1008.9 ± 3.2 kg/m3
- speed of sound (x1 = 0.018): 1490 ± 12 m/s
- mass density (x1 = 0.048): 1021 ± 3.3 kg/m3
- speed of sound (x1 = 0.048): 1544.4 ± 13 m/s
- mass density (x1 = 0.077): 1031.1 ± 3.4 kg/m3
- speed of sound (x1 = 0.077): 1580 ± 13 m/s
- mass density (x1 = 0.096): 1035.1 ± 3.5 kg/m3
- speed of sound (x1 = 0.096): 1590.4 ± 13 m/s
- mass density (x1 = 0.24): 1051.2 ± 4.1 kg/m3
- speed of sound (x1 = 0.24): 1587.6 ± 13 m/s
- mass density (x1 = 0.387): 1052.8 ± 4.9 kg/m3
- speed of sound (x1 = 0.387): 1531.6 ± 13 m/s
- mass density (x1 = 0.595): 1051.7 ± 6.3 kg/m3
- speed of sound (x1 = 0.595): 1479.4 ± 13 m/s

SMILES: CC#N [acetonitrile] + O
- mass density (x1 = 0.053): 986.6 ± 3.2 kg/m3
- speed of sound (x1 = 0.053): 1540 ± 13 m/s
- mass density (x1 = 0.091): 974.3 ± 3.2 kg/m3
- speed of sound (x1 = 0.091): 1549.6 ± 13 m/s
- mass density (x1 = 0.146): 955.5 ± 3.3 kg/m3
- speed of sound (x1 = 0.146): 1511.8 ± 13 m/s
- mass density (x1 = 0.187): 941.9 ± 3.3 kg/m3
- speed of sound (x1 = 0.187): 1476.2 ± 12 m/s
- mass density (x1 = 0.296): 909.5 ± 3.6 kg/m3
- speed of sound (x1 = 0.296): 1451 ± 12 m/s
- mass density (x1 = 0.376): 888.4 ± 3.8 kg/m3
- speed of sound (x1 = 0.376): 1425 ± 12 m/s
- mass density (x1 = 0.518): 859 ± 4.2 kg/m3
- speed of sound (x1 = 0.518): 1387.2 ± 12 m/s
- mass density (x1 = 0.692): 831.5 ± 4.9 kg/m3
- speed of sound (x1 = 0.692): 1352 ± 12 m/s
- mass density (x1 = 0.889): 807.2 ± 5.9 kg/m3
- speed of sound (x1 = 0.889): 1321 ± 12 m/s

SMILES: CN(C)C=O [dimethylformamide] + O
- mass density (x1 = 0.023): 1000.9 ± 3.2 kg/m3
- speed of sound (x1 = 0.023): 1511.6 ± 13 m/s
- mass density (x1 = 0.0485): 1002.9 ± 3.2 kg/m3
- speed of sound (x1 = 0.0485): 1578.6 ± 13 m/s
- mass density (x1 = 0.0714): 1005.2 ± 3.3 kg/m3
- speed of sound (x1 = 0.0714): 1625 ± 13 m/s
- mass density (x1 = 0.0972): 1007.3 ± 3.4 kg/m3
- speed of sound (x1 = 0.0972): 1664.6 ± 14 m/s
- mass density (x1 = 0.2457): 1009.7 ± 3.9 kg/m3
- speed of sound (x1 = 0.2457): 1748 ± 14 m/s
- mass density (x1 = 0.3865): 1002.2 ± 4.5 kg/m3
- speed of sound (x1 = 0.3865): 1714.6 ± 14 m/s
- mass density (x1 = 0.5924): 986.6 ± 5.7 kg/m3
- speed of sound (x1 = 0.5924): 1646 ± 14 m/s
- mass density (x1 = 0.844): 970 ± 7.6 kg/m3
- speed of sound (x1 = 0.844): 1564 ± 14 m/s

SMILES: C1CCOC1 [tetrahydrofuran] + O
- mass density (x1 = 0.046): 996.6 ± 5.9 kg/m3
- speed of sound (x1 = 0.046): 1571.5 ± 13 m/s
- mass density (x1 = 0.086): 994.4 ± 5.9 kg/m3
- speed of sound (x1 = 0.086): 1610.7 ± 13 m/s
- mass density (x1 = 0.19): 979 ± 6.2 kg/m3
- speed of sound (x1 = 0.19): 1554 ± 13 m/s
- mass density (x1 = 0.33): 970.5 ± 6.7 kg/m3
- speed of sound (x1 = 0.33): 1474.2 ± 12 m/s
- mass density (x1 = 0.54): 934 ± 7.4 kg/m3
- speed of sound (x1 = 0.54): 1420.7 ± 12 m/s
- mass density (x1 = 0.74): 919.2 ± 8.6 kg/m3
- speed of sound (x1 = 0.74): 1396.7 ± 12 m/s

SMILES: O [water] + C1CCOC1
- mass density (x2 = 0): 999.9 ± 5.8 kg/m3
- speed of sound (x2 = 0): 1433 ± 12 m/s

SMILES: O [water] + C1COCCO1
- mass density (x2 = 0): 999.9 ± 3.1 kg/m3
- speed of sound (x2 = 0): 1430.4 ± 12 m/s

SMILES: O [water] + CC#N
- mass density (x2 = 0): 999.9 ± 3.1 kg/m3
- speed of sound (x2 = 0): 1430.4 ± 12 m/s

SMILES: O [water] + CN(C)C=O
- mass density (x2 = 0): 999.9 ± 3.1 kg/m3
- speed of sound (x2 = 0): 1430.4 ± 12 m/s
